Test results from patent publication US12559529B2, “NPY2 receptor agonists” (Boehringer Ingelheim International GmbH, priority 2019, dated 2026).
pKi: −log10 of the molar value.

What was measured:
[1] = biological target: T1, Human Neuropeptide Y2 Receptor (Homo sapiens, UniProt P49146); test: Radioligand binding competition assay (RLB); details: Table 3; human 125I-PYY (1-36) 0.02 nM, Y2 receptor membranes; read-out: Ki
T1 construct: purchased CHEMICON HTS066M
T1 sequence (P49146 1-381): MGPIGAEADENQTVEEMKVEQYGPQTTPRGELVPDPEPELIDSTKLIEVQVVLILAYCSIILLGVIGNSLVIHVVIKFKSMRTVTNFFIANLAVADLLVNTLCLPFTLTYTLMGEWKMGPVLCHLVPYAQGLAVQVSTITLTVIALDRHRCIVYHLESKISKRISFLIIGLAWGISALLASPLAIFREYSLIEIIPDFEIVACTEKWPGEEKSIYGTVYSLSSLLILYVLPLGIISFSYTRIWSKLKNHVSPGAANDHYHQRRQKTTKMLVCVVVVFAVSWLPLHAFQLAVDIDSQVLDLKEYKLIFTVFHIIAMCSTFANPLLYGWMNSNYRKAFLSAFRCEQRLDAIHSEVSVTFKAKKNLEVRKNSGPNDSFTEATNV
Summary of the method: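 Competition binding at commercial human NPY Y2 membrane preparations, 0.5 μg protein per well, 2 h incubation at room temperature. Bound and free ligand were separated on GF/C filters and counted; IC50 was fitted by nonlinear regression.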

normal NMRI mice = test: Effect on acute food intake in normal NMRI mice; format: in vivo; details: male NMRI mice, 10 nmol/kg subcutaneously once
Summary of the method: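 A single 10 nmol/kg s.c. peptide dose was given 1 h before lights-off to male NMRI mice fasted from 6 h before the night phase (n=7-8). Intake was recorded continuously by microchip-identified HM-2 feeding channels. Values are normalized to vehicle controls (50 mM phosphate buffer pH7 with 5% Mannitol).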

pKi [1] | Compound | Acute Food Intake 24 h [% vehicle] (normal NMRI mice)
8.41 | CC(C)CC(=O)N[C@@H](C)C(=O)N1CCC[C@H]1C(=O)N[C@@H](CCC(=O)O)C(=O)N[C@@H](CCCCNC(=O)COCCOCCNC(=O)COCCOCCNC(=O)CC[C@H](NC(=O)CCCCCCCCCCCCCCCCC(=O)O)C(=O)O)C(=O)N1CCC[C@H]1C(=O)N[C@@H](CCC(=O)O)C(=O)N[C@@H](CCC(=O)O)C(=O)N[C@@H](CC(=O)O)C(=O)N[C@@H](C)C(=O)N[C@@H](CO)C(=O)N1CCC[C@H]1C(=O)N[C@@H](CCC(=O)O)C(=O)N[C@@H](CCC(=O)O)C(=O)N[C@H](C(=O)N[C@@H](CCC(N)=O)C(=O)N[C@@H](CCC(N)=O)C(=O)N[C@@H](Cc1ccc(O)cc1)C(=O)N[C@@H](Cc1ccc(O)cc1)C(=O)N[C@H](C(=O)N[C@@H](CO)C(=O)N[C@@H](CC(C)C)C(=O)N[C@@H](CCCNC(=N)N)C(=O)N[C@@H](Cc1c[nH]cn1)C(=O)N[C@@H](Cc1ccc(O)cc1)C(=O)N[C@@H](Cc1ccc(O)cc1)C(=O)N[C@@H](CC(N)=O)C(=O)N[C@@H](Cc1c[nH]c2ccccc12)C(=O)N[C@@H](CC(C)C)C(=O)N[C@H](C(=O)N[C@@H](CCCNC(=N)N)C(=O)N[C@@H](CCC(N)=O)C(=O)N[C@@H](CCCNC(=N)N)C(=O)N[C@@H](Cc1ccc(O)cc1)C(N)=O)[C@@H](C)O)C(C)C)[C@@H](C)O [Compound 180, N{alpha-4}-(3-methylbutanoyl)-N{epsilon-7}-[2-(2-{2-[2-(2-{2-[(4S)-4-carboxy-4-(17-carboxyheptadecanamido)butanamido]ethoxy}ethoxy)acetamido]ethoxy}ethoxy)acetamido]-[4A,7K,9E,17T,18Q,19Q,22V,28Y,30W,31L]hPYY (4-36)] | 74
8.45 | CC(C)CC(=O)N[C@@H](C)C(=O)N1CCC[C@H]1C(=O)N[C@@H](CCC(=O)O)C(=O)N[C@@H](CCCCNC(=O)COCCOCCNC(=O)COCCOCCNC(=O)CC[C@H](NC(=O)CCCCCCCCCCCCCCCCC(=O)O)C(=O)O)C(=O)N1CCC[C@H]1C(=O)N[C@@H](CCC(=O)O)C(=O)N[C@@H](CCC(=O)O)C(=O)N[C@@H](CCC(=O)O)C(=O)N[C@@H](C)C(=O)N[C@@H](CO)C(=O)N1CCC[C@H]1C(=O)N[C@@H](CCC(=O)O)C(=O)N[C@@H](CCC(=O)O)C(=O)N[C@@H](CC(C)C)C(=O)N[C@@H](CCC(N)=O)C(=O)N[C@@H](CCCNC(=N)N)C(=O)N[C@@H](Cc1ccc(O)cc1)C(=O)N[C@@H](Cc1ccc(O)cc1)C(=O)N[C@H](C(=O)N[C@@H](CCC(=O)O)C(=O)N[C@@H](CC(C)C)C(=O)N[C@@H](CCCNC(=N)N)C(=O)N[C@@H](Cc1c[nH]cn1)C(=O)N[C@@H](Cc1ccc(O)cc1)C(=O)N[C@@H](Cc1ccc(O)cc1)C(=O)N[C@@H](CC(N)=O)C(=O)N[C@@H](Cc1c[nH]c2ccccc12)C(=O)N[C@@H](CC(C)C)C(=O)N[C@H](C(=O)N[C@@H](CCCNC(=N)N)C(=O)N[C@@H](CCC(N)=O)C(=O)N[C@@H](CCCNC(=N)N)C(=O)N[C@@H](Cc1ccc(O)cc1)C(N)=O)[C@@H](C)O)C(C)C [Compound 185, N{alpha-4}-(3-methylbutanoyl)-N{epsilon-7}-[2-(2-{2-[2-(2-{2-[(4S)-4-carboxy-4-(17-carboxyheptadecanamido)butanamido]ethoxy}ethoxy)acetamido]ethoxy}ethoxy)acetamido]-[4A,7K,9E,11E,18Q,22V,23E,28Y,30W,31L]hPYY (4-36)] | 39
8.42 | CC[C@H](C)[C@H](NC(=O)[C@H](CCC(=O)O)NC(=O)[C@H](CCC(=O)O)NC(=O)[C@H](CCC(=O)O)NC(=O)[C@H](CO)NC(=O)[C@H](C)NC(=O)[C@H](CC(=O)O)NC(=O)[C@H](CCC(=O)O)NC(=O)[C@H](CCC(=O)O)NC(=O)[C@@H]1CCCN1C(=O)[C@H](CCCCNC(=O)COCCOCCNC(=O)COCCOCCNC(=O)CC[C@H](NC(=O)CCCCCCCCCCCCCCCCC(=O)O)C(=O)O)NC(=O)[C@H](CCC(=O)O)NC(=O)[C@@H]1CCCN1C(=O)[C@H](C)NC(=O)CC(C)C)C(=O)N[C@@H](CCC(N)=O)C(=O)N[C@@H](CCCNC(=N)N)C(=O)N[C@@H](Cc1ccc(O)cc1)C(=O)N[C@@H](Cc1ccc(O)cc1)C(=O)N[C@H](C(=O)N[C@@H](CO)C(=O)N[C@@H](CC(C)C)C(=O)N[C@@H](CCCNC(=N)N)C(=O)N[C@@H](Cc1c[nH]cn1)C(=O)N[C@@H](Cc1ccc(O)cc1)C(=O)N[C@@H](Cc1ccc(O)cc1)C(=O)N[C@@H](CC(N)=O)C(=O)N[C@@H](Cc1c[nH]c2ccccc12)C(=O)N[C@@H](CC(C)C)C(=O)N[C@H](C(=O)N[C@@H](CCCNC(=N)N)C(=O)N[C@@H](CCC(N)=O)C(=O)N[C@@H](CCCNC(=N)N)C(=O)N[C@@H](Cc1ccc(O)cc1)C(N)=O)[C@@H](C)O)C(C)C [Compound 193, N{alpha-4}-(3-methylbutanoyl)-N{epsilon-7}-[2-(2-{2-[2-(2-{2-[(4S)-4-carboxy-4-(17-carboxyheptadecanamido)butanamido]ethoxy}ethoxy)acetamido]ethoxy}ethoxy)acetamido]-[4A,7K,9E,14E,17I,18Q,22V,28Y,30W,31L]hPYY (4-36)] | 57
9.12 | CC(C)CC(=O)N[C@@H](C)C(=O)N1CCC[C@H]1C(=O)N[C@@H](CCC(=O)O)C(=O)N[C@@H](CCCCNC(=O)COCCOCCNC(=O)COCCOCCNC(=O)CC[C@H](NC(=O)CCCCCCCCCCCCCCCCC(=O)O)C(=O)O)C(=O)N1CCC[C@H]1C(=O)N[C@@H](CCC(=O)O)C(=O)N[C@@H](CCC(=O)O)C(=O)N[C@@H](CC(=O)O)C(=O)N[C@@H](C)C(=O)N[C@@H](CO)C(=O)N1CCC[C@H]1C(=O)N[C@@H](CCC(=O)O)C(=O)N[C@@H](C)C(=O)N[C@@H](CC(C)C)C(=O)N[C@@H](CCC(N)=O)C(=O)N[C@@H](CCCNC(=N)N)C(=O)N[C@@H](Cc1ccc(O)cc1)C(=O)N[C@@H](Cc1ccc(O)cc1)C(=O)N[C@H](C(=O)N[C@@H](CCC(=O)O)C(=O)N[C@@H](CC(C)C)C(=O)N[C@@H](CCCNC(=N)N)C(=O)N[C@@H](Cc1c[nH]cn1)C(=O)N[C@@H](Cc1ccc(O)cc1)C(=O)N[C@@H](Cc1ccc(O)cc1)C(=O)N[C@@H](CC(N)=O)C(=O)N[C@@H](Cc1c[nH]c2ccccc12)C(=O)N[C@@H](CC(C)C)C(=O)N[C@H](C(=O)N[C@@H](CCCNC(=N)N)C(=O)N[C@@H](CCC(N)=O)C(=O)N[C@@H](CCCNC(=N)N)C(=O)N[C@@H](Cc1ccc(O)cc1)C(N)=O)[C@@H](C)O)C(C)C [Compound 195, N{alpha-4}-(3-methylbutanoyl)-N{epsilon-7}-[2-(2-{2-[2-(2-{2-[(4S)-4-carboxy-4-(17-carboxyheptadecanamido)butanamido]ethoxy}ethoxy)acetamido]ethoxy}ethoxy)acetamido]-[4A,7K,9E,16A,18Q,22V,23E,28Y,30W,31L]hPYY (4-36)] | 50
9.22 | CC(C)CC(=O)N[C@@H](C)C(=O)N1CCC[C@H]1C(=O)N[C@@H](CCC(=O)O)C(=O)N[C@@H](CCCCNC(=O)COCCOCCNC(=O)COCCOCCNC(=O)CC[C@H](NC(=O)CCCCCCCCCCCCCCCCC(=O)O)C(=O)O)C(=O)N1CCC[C@H]1C(=O)N[C@@H](CCC(=O)O)C(=O)N[C@@H](CCC(=O)O)C(=O)N[C@@H](CC(=O)O)C(=O)N[C@@H](C)C(=O)N[C@@H](C)C(=O)N1CCC[C@H]1C(=O)N[C@@H](CCC(=O)O)C(=O)N[C@@H](CCC(=O)O)C(=O)N[C@@H](CC(C)C)C(=O)N[C@@H](CCC(N)=O)C(=O)N[C@@H](CCCCN)C(=O)N[C@@H](Cc1ccc(O)cc1)C(=O)N[C@@H](Cc1ccc(O)cc1)C(=O)N[C@H](C(=O)N[C@@H](CO)C(=O)N[C@@H](CC(C)C)C(=O)N[C@@H](CCCNC(=N)N)C(=O)N[C@@H](Cc1c[nH]cn1)C(=O)N[C@@H](Cc1ccc(O)cc1)C(=O)N[C@@H](Cc1ccc(O)cc1)C(=O)N[C@@H](CC(N)=O)C(=O)N[C@@H](Cc1c[nH]c2ccccc12)C(=O)N[C@@H](CC(C)C)C(=O)N[C@H](C(=O)N[C@@H](CCCNC(=N)N)C(=O)N[C@@H](CCC(N)=O)C(=O)N[C@@H](CCCNC(=N)N)C(=O)N[C@@H](Cc1ccc(O)cc1)C(N)=O)[C@@H](C)O)C(C)C [Compound 202, N{alpha-4}-(3-methylbutanoyl)-N{epsilon-7}-[2-(2-{2-[2-(2-{2-[(4S)-4-carboxy-4-(17-carboxyheptadecanamido)butanamido]ethoxy}ethoxy)acetamido]ethoxy}ethoxy)acetamido]-[4A,7K,9E,13A,18Q,19K,22V,28Y,30W,31L]hPYY (4-36)] | 48
